Source: patent US11390629B2, “1,5-disubstituted 1,2,3-triazoles are inhibitors of Rac/Cdc42 GTPases” (UNIVERSITY OF PUERTO RICO, priority 2016, dated 2022)
“Also recorded” adds a separate entry of the source.

How the values were obtained:
[1] = target: T1, Cdc42 (Homo sapiens, UniProt P60953); assay: Cdc42 activity (Table 1A); assay type: cell-based; details: class by % inhibition at stated concentration
[2] = tested on: PAK; assay: Western blot of PAK activity, MCF-7 cells; assay type: cell-based, human; details: MCF-7, 250 nM, 24 h; listed as MBQ-167
[3] = tested on: caspase-3/7 activity in MDA-MB-231 cells; assay: Caspase-Glo 3/7 apoptosis assay; assay type: cell-based, human; details: 0-1000 nM, 24 h, MDA-MB-231 and GFP-HER2-BM
Description: (§1) Effect of MBQ-167 on cell survival.
To evaluate whether the cell cycle arrest was accompanied by an increase in apoptosis, the activity of the effector caspases3/7 in whole cell populations (both attached and detached). […] To determine whether MBQ-167 induces anoikis, the relative levels of caspase-3/7 activities were analyzed in the attached and detached MDA-MB-231 cell populations following 24 h at 250 nM MBQ-167.
Apoptosis was measured using a Caspase-Glo3/7 Luminescence Assay Kit as per manufacturer's instructions (Promega, Corp., Madison, Wis., USA). Following treatment of equal numbers of cells with vehicle or MBQ-167 for 24 h, Caspase-3/7 Glo reagent was added and incubated at room temperature for 60 min. Caspase-3/7 activities were determined by quantifying luminescence.

[4] = tested on: Bcl-2, Bcl-xL, Mcl-1; assay: Western blot of pro-survival proteins, MDA-MB-231; details: 250 nM, 24 h
[5] = tested on: GFP-MDA-MB-231 cells; assay: Annexin V-Cy3-18 staining; assay type: cell-based, human; details: 250 or 500 nM, 6 h
Description: FIG. 14. Annexin V staining in response to MBQ-167. GFP-MDA-MB-231 cells growing on coverslips were treated with vehicle or MBQ-167 at 250 or 500 nM for 6 h; Cells were fixed in formaldehyde and stained with Annexin V-Cy3-18; Representative fluorescence micrographs are shown; Arrows indicate red fluorescent Annexin V staining at the membranes of apoptotic cells.
Apoptotic cells were detected by fluorescence microscopy of Annexin V-Cy3-18 stained cells as per manufacturer's instructions (Sigma-Aldrich, St Louis, Mo., USA). Briefly, GFP-MDA-MB-231 cells grown on coverslips were treated with vehicle, or 250 or 500 nM MBQ-167 for 6 h and stained with Annexin V-Cy3-18 in binding buffer (10 mM HEPES/NaOH, pH 7.5, 0.14 M NaCl, 2.5 mM CaCl2) for 15 min at room temperature. Coverslips were washed in binding buffer and fixed with 3.7% paraformaldehyde prior to fluorescence microscopy. Images were digitally acquired from an Olympus inverted fluorescence microscope.

[6] = target: T1, Cdc42; assay: Cdc42 activation pulldown (p21-binding domain of PAK) and western blot, MDA-MB-231 cells; assay type: cell-based; parameters: endogenous in cells; host or cells: MDA-MB-231; details: 24 h, detached cells
[7] = tested on: MDA-MB-231 cells; assay: Cell cycle progression by flow cytometry (PI), MDA-MB-231; assay type: cell-based, human; details: 250 nM; listed as MBQ-167
Description: as §1
MDA-MB-231 cells were incubated with 0 or 250 nM MBQ-167 for 48 h and all cells (detached and attached) were stained with PI, as in (27). Cell cycle stage was analyzed using a four-color flow cytometer (FACSCalibur, BD Biosciences, San Jose, Calif.). A total of 20,000 events were analyzed for each sample. List-mode files were collected using Cell Quest software 3.3 and analyzed using the Flow Jo software vX.0.7 (BD Biosciences, San Jose, Calif.).

[8] = tested on: MCF10A mammary epithelial cells; assay: Cell viability assay (CellTiter 96 / MTT), MCF10A; details: 120 h
[9] = tested on: NCI-N87 cells; assay: MTT viability assay, NCI-N87 gastric cancer cells; assay type: cell-based, human; details: 250 nM
Excerpt: FIGS. 8A, 8B. The effect of MBQ-167 on survival and PAK activity in NCI-N87 gastric cancer cells.

[10] = tested on: GFP-HER2-BM mammary fat pad tumors; assay: Mammary fat pad tumor growth, GFP-HER2-BM cells in nude mice; assay type: in vivo; details: for reduction in tumor growth: 65 days; for Optimal % Change in Tumor Size (% T/C): day 65, control = 100; for Time in Days for Doubling of Tumor size, 2^1: control 8; for Time in Days for Doubling of Tumor size, 2^2: control 14.5; for Time in Days for Doubling of Tumor size, 2^3: control 27.7; for Time in Days for Doubling of Tumor size, 2^4: control 33.3
Description: FIGS. 6A-1, 6A-2, 6B, 6C, 6D, 6E. In-vivo efficacy of MBQ-167 in HER2-type breast cancer.
To test the effect of MBQ-167 on mammary tumor progression, nude mice were used to establish mammary fatpad tumors from GFP-HER2-BM cells. One week following mammary tumor establishment, the mice were treated 3× a week with 0, 1, or 10 mg/kg BW MBQ-167 by i.p. for 65 days.
Mice were treated with vehicle (12.5% ethanol, 12.5% Cremophor (Sigma-Aldrich, St. Louis, Mo.), and 75% 1×PBS pH 7.4), or 1 or 10 mg/kg BW MBQ-167 by i.p. injection in a 100 μL volume 3× a wk. Treatments continued until sacrifice at day 65.

[11] = Toxicity observation: mouse weight and phenotype; assay type: in vivo, mice; details: 65-day study, 1 and 10 mg/kg BW; listed as MBQ-167
Excerpt: The mice from this study were also examined once a week for potential toxicity. […] At necropsy, livers were harvested, lysed and subjected to liver enzyme assays as a test for potential toxic effects.

[12] = tested on: MCF10A and MCF-7 cells; assay: Bright field cell phenotype, epithelial cells; assay type: cell-based, human; details: up to 500 nM
Description: FIGS. 2A, 2B, 2C. Breast cancer cell phenotype following MBQ-167 treatment.
Human breast cancer cells were visualized by bright field microscopy following MBQ-167 treatment. At ≥100 nM, starting at six hours, MBQ-167 induced a loss of polarity in metastatic breast cancer cells. […] On the other hand, non-cancer mammary epithelial MCF10A and epithelial breast cancer MCF-7 cells were resistant to MBQ-167 and remained polarized and attached to each other and the substratum (FIG. 2A).

T1 sequence (P60953 whole entry): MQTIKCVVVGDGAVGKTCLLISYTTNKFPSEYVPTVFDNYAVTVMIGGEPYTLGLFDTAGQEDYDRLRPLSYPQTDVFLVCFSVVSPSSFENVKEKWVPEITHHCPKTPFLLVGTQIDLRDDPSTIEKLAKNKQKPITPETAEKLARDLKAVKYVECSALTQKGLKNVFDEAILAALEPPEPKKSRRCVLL

With `CCn1c2ccccc2c2cc(-n3nncc3-c3ccccc3)ccc21` [I-1, 9-ethyl-3-(5-phenyl-1H-1,2,3-triazol-1-yl)-9H-carbazole] the Cdc42 activity [1] was “A (>50% inhibition at 250 nM)”, the “effect on PAK activity” value [2] was “did not affect; also recorded: does not inhibit” and the “caspase-3/7 activity in whole cell populations” value [3] was “dose-dependent increase”. The “expression of pro-survival proteins Bcl-2, Bcl-xL, Mcl-1” value [4] was “significant decrease”, the “Annexin V staining” value [5] was “increased Annexin V staining” and the “inhibition of Cdc42 activity” value ([6]; 250 nM, listed as MBQ-167, […]) was 85%. For the same molecule, the inhibition at […] ([6]; MDA-MB-231, 250 nM) was 78%, the “effect on cell cycle” value [7] was “significantly arrested the cell cycle of MDA-MB-231 cells in the G2/M phase; also recorded: G2/M phase arrest” and the GI50 ([8]; Homo sapiens, MCF-10A) was 350 nM. The “effect on viability of MCF7 and MCF-10A cells” value ([8]; at the GI50 concentrations of the metastatic cells) was “does not affect the viability”, the “reduction of cell viability” value ([9]; 24 h, listed as MBQ-167) was 55% and the cytotoxicity at […] ([9]; Homo sapiens, NCI-N87, 24 h, read-out: reduction of cell viability) was 50%. The “reduction in tumor growth” value ([10]; 1.0 mg/kg BW i.p. 3x a week) was about 80%, the “Optimal % Change in Tumor Size (% T/C)” value ([10]; 1 mg/kg BW i.p. 3x a week) was 58% and the “Time in Days for Doubling of Tumor size, 2^1” value ([10]; 1 mg/kg BW) was 10 days. The “Time in Days for Doubling of Tumor size, 2^2” value ([10]; 1 mg/kg BW) was 30 days, the “Time in Days for Doubling of Tumor size, 2^3” value ([10]; 1 mg/kg BW) was 57 days and the “Time in Days for Doubling of Tumor size, 2^4” value ([10]; 1 mg/kg BW) was “never reached”. For the same molecule, the “reduction in tumor growth” value ([10]; 10 mg/kg BW i.p. 3x a week) was about 95%, the “Optimal % Change in Tumor Size (% T/C)” value ([10]; 10 mg/kg BW i.p. 3x a week) was 9% and the “reduction of mammary fat pad tumor size” value ([10]; 10 mg/kg BW, by 2 months) was 91%. For the same molecule, the “Time in Days for Doubling of Tumor size, 2^1” value ([10]; 10 mg/kg BW) was 11 days, the “Time in Days for Doubling of Tumor size, 2^2” value ([10]; 10 mg/kg BW) was 30 days and the “Time in Days for Doubling of Tumor size, 2^3” value ([10]; 10 mg/kg BW) was “never reached”. The “Time in Days for Doubling of Tumor size, 2^4” value ([10]; 10 mg/kg BW) was “never reached”, the “inhibition of mammary tumor growth and metastasis” value ([10]; immunocompromised mice) was about 90% and the “weight loss or phenotypic changes” value [11] was “did not show any significant weight loss or phenotypic changes; also recorded: does not exert toxic effects”. The “cell rounding and detachment phenotype” value [12] was “resistant”.
